Results reported in patent publication US7087722B1, “Fibrin binding domain polypeptides and uses and methods of producing same” (Savient Pharmaceuticals, Inc., priority 1988, dated 2006).

Columns and labels:
[1] = tested on: clotting of citrated healthy human plasma by thrombin; experiment: Plasma Thrombin Time (TT), clotting of citrated healthy human plasma; type: biochemical; conditions: 1 mM spermidine; for "TT" Values (%): no addition: 100
Protocol: The effect of the r31 kD polypeptide on clotting of whole blood was measured using the clinical laboratory parameter defined as Thrombin-Time. In this reaction aliquots of 100 μl citrated healthy human plasma were mixed with 100 μl PBS and either the transglutaminase inhibitor spermidine, or with reduced-carboxyamidated p31 kD or reoxidized-refolded r31 kD. 200 μl thrombin solution was added to each aliquot while continuously mixing. The time from the addition of the thrombin to the formation of clot was measured, and is expressed as “TT” in seconds (Table B).

[2] = biological target: T1, guinea-pig liver transglutaminase (Sigma) (UniProt P08587); experiment: Binding of 125I-r31 kD FBD to extracellular matrix (ECM) of endothelial cells in the presence of exogenous transglutaminase; type: biochemical; conditions: 0.3 μM 125I-r31 kD FBD; 3 mM CaCl2; 0.02 units/ml transglutaminase; 45 minutes
T1 construct: purchased Sigma; host or cells: guinea-pig liver
T1 sequence (P08587 2-690): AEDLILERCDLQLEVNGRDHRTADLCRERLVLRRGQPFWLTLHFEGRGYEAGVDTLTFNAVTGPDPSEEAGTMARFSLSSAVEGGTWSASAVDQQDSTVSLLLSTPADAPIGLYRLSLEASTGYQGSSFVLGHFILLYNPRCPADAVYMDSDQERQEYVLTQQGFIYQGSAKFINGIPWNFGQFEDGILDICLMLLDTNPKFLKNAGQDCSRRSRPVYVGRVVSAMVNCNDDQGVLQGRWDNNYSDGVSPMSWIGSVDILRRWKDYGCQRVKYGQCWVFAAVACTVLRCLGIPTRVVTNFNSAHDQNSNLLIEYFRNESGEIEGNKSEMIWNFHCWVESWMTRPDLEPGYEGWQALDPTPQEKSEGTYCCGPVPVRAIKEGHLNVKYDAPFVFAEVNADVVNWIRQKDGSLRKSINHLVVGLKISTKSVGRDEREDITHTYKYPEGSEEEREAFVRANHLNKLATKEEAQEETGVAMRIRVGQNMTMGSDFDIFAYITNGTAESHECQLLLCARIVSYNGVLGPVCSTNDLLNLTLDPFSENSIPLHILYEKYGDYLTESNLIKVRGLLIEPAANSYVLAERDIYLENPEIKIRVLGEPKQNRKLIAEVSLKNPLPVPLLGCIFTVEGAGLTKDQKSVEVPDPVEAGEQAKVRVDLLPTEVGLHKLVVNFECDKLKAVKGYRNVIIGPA
Protocol: FIG. 51. Binding of ^125I-r31 kD FBD to ECM in the presence of various constituents
0.3 μM of ^125I-r31 kD FBD was incubated with extracellular matrix of endothelial cells (ECM) as described by Eld r et al. (20) in a 37° C. CO2-incubator in the presence of saline, 3 mM CaCl2 and 0.02 units/ml of guinea-pig liver transglutaminase (TG) and other constituents as indicated in the figure. The control was done in the absence of transglutaminase.
The reactions were terminated after 45 minutes by washing five times with PBS. Plates were extracted with a solution of 0.5% SDS and aliquots of the extracted material were measured in a gamma counter.
The binding was now further characterized by examination of the binding of 0.3 μM ^125I-r31 kD FBD to ECM in the presence and absence of exogenous transglutaminase; additionally the binding in the presence of transglutaminase was examined in the presence of each of heparin, fibronectin or spermidine.

NCCCCNCCCN [spermidine]
"TT" Values (\) ([1]; thrombin conc. 1.25 (μ/ml)): 105 | "TT" Values ([1]; thrombin conc. 1.25 (μ/ml), no addition: 55.4): 114 s | "TT" Values (%) ([1]; thrombin conc. 1.25 (μ/ml)): 205% | "TT" Values (\) ([1]; thrombin conc. 2.5 (μ/ml)): 72 | "TT" Values ([1]; thrombin conc. 2.5 (μ/ml), no addition: 25.5): 44 s | "TT" Values (%) ([1]; thrombin conc. 2.5 (μ/ml)): 172% | effect on binding of r31 kD FBD to ECM in the presence of transglutaminase [2]: inhibits the binding
